Consider 11 compounds from ChEMBL document CHEMBL6127107, “Oleanolic acid derivatives against drug-resistant bacteria and fungi by multi-targets to avoid drug resistance” (Eur J Med Chem, 2024).

Series [1] deals with Enterococcus faecalis. The experiment in a line: Antimicrobial activity against vancomycin resistant Enterococcus faecalis ATCC 51299. The series is classed as functional.
Series [2] is described as follows: Hemolytic activity against Mianyang red blood cells (unknown origin). The series is classed as toxicity, cell-based, RBC.
Series [3] relates to Staphylococcus aureus. Put plainly: Antibacterial activity against methicillin-resistant Staphylococcus aureus infected in cyclophosphamide-injected Kunming mouse model of skin wound infection assessed as reduction in bacterial load in skin at 4 mg/kg measured after 7 days. The series is classed as functional. The following applies: time 7 day.
Series [4] relates to Staphylococcus aureus. The experiment in a line: Antibacterial activity against methicillin-resistant Staphylococcus aureus infected in cyclophosphamide-injected Kunming mouse model of skin wound infection assessed as wound repair by measuring reduction in wound area at 4 mg/kg measured for 7 days by photographic analysis. Type of series: functional, organism-based. The following applies: time 7.0 day.

Series [5] is described as follows: Selectivity index, ratio of HC50 for hemolytic activity against Mianyang red blood cells (unknown origin) to MIC for antimicrobial activity against methicillin resistant Staphylococcus aureus 003. Type of series: toxicity, cell-based, RBC. To be noted: read-out: Selectivity Index.
The test system of series [6] is Staphylococcus aureus. The experiment in a line: Antimicrobial activity against Staphylococcus aureus 31. The series is classed as functional.
The subject of series [7] is Staphylococcus aureus. Put plainly: Antimicrobial activity against methicillin-resistant Staphylococcus aureus 011. Type of series: functional.
Series [8] concerns Staphylococcus aureus. The experiment in a line: Antimicrobial activity against Staphylococcus aureus 29. The series is classed as functional.
The subject of series [9] is Pseudomonas aeruginosa. Put plainly: Antimicrobial activity against Pseudomonas aeruginosa. The series is classed as functional.
For series [10], the system named is Staphylococcus aureus. Put plainly: Antimicrobial activity against Staphylococcus aureus 10. Type of series: functional.
In series [11] the test system is Staphylococcus aureus. The experiment in a line: Antimicrobial activity against methicillin-resistant Staphylococcus aureus 003. Type of series: functional.
Series [12] relates to Escherichia coli. The experiment in a line: Antimicrobial activity against Escherichia coli. Type of series: functional.
Series [13] relates to Candida albicans. Put plainly: Antimicrobial activity against fluconazole-resistant Candida albicans. Type of series: functional.
For series [14], the system named is Staphylococcus aureus. Put plainly: Drug resistance, ratio of MIC for methicillin-resistant Staphylococcus aureus measured after 20 days of continuous passage to MIC for methicillin-resistant Staphylococcus aureus measured after first exposure. The series is classed as functional.

Values after ≈ are worked out from the molar mass of the structure shown. Active and inactive are the calls of the source. The rule behind the calls is not given here.

In series [1], `CN[C@H](CC(C)C)C(=O)N[C@H]1C(=O)N[C@@H](CC(N)=O)C(=O)N[C@H]2C(=O)N[C@H]3C(=O)N[C@H](C(=O)N[C@H](C(=O)O)c4cc(O)cc(O)c4-c4cc3ccc4O)[C@H](O)c3ccc(c(Cl)c3)Oc3cc2cc(c3O[C@@H]2O[C@H](CO)[C@@H](O)[C@H](O)[C@H]2O[C@H]2C[C@](C)(N)[C@H](O)[C@H](C)O2)Oc2ccc(cc2Cl)[C@H]1O` [VANCOMYCIN] returned an MIC of 2 µg/mL (≈ 1.38 µM). Moreover, the HC50 in series [2] was more than 256 µg/mL. Besides, the Activity in [3] stood at 0.9 log10CFU/mg. Further, the result in [4] was Active.
For the compound `CC1(C)CC[C@]2(C(=O)O)CC[C@]3(C)C(=CC[C@@H]4[C@@]5(C)CC[C@H](OCC(O)CCCCN)C(C)(C)[C@@H]5CC[C@]43C)[C@@H]2C1` (some centres undefined), the selectivity ratio in series [5] was found to be 6.54. The MIC in series [6] was 8 µg/mL (≈ 14 µM); in [7] it was 4 µg/mL (≈ 6.99 µM); in series [8], 4 µg/mL (≈ 6.99 µM); in series [9], more than 64 µg/mL; in series [1], 8 µg/mL (≈ 14 µM); in [10], 4 µg/mL (≈ 6.99 µM). The results for the MIC in [11], in [12] and in [13] were 4 µg/mL (≈ 6.99 µM), more than 64 µg/mL and 16 µg/mL (≈ 28 µM), respectively. This compound returned an HC50 in series [2] of 26.1 µg/mL.
With `CC1(C)CC[C@]2(C(=O)O)CC[C@]3(C)C(=CC[C@@H]4[C@@]5(C)CC[C@H](OCC(O)CCCN)C(C)(C)[C@@H]5CC[C@]43C)[C@@H]2C1` (some centres undefined), the selectivity ratio in [5] was found to be 8.01. For the same compound, the MIC in series [6] was 8 µg/mL (≈ 14.3 µM); in series [7] it was 2 µg/mL (≈ 3.59 µM); in series [8], 2 µg/mL (≈ 3.59 µM); in series [9] it was more than 64 µg/mL; in series [1], 8 µg/mL (≈ 14.3 µM); in series [10], 4 µg/mL (≈ 7.17 µM). Besides, the MIC was 4 µg/mL (≈ 7.17 µM) in series [11], more than 64 µg/mL in [12] and 4 µg/mL (≈ 7.17 µM) in series [13]. For the same compound, in series [2], the HC50 worked out at 32 µg/mL.
On to `CC1(C)CC[C@]2(C(=O)O)CC[C@]3(C)C(=CC[C@@H]4[C@@]5(C)CC[C@H](OC(=O)CCC(=O)O)C(C)(C)[C@@H]5CC[C@]43C)[C@@H]2C1` [OLEANOLIC ACID 3-O-SUCCINATE], for which the selectivity ratio in series [5] was more than 64. Moreover, the MIC in series [6] was 32 µg/mL (≈ 57.5 µM); in series [7], 16 µg/mL (≈ 28.7 µM); in [8] it was 8 µg/mL (≈ 14.4 µM); in series [9], more than 64 µg/mL; in series [1] it was 32 µg/mL (≈ 57.5 µM); in series [10] it was 16 µg/mL (≈ 28.7 µM). The MIC in series [11] was 16 µg/mL (≈ 28.7 µM); in series [12], more than 64 µg/mL; in series [13], 32 µg/mL (≈ 57.5 µM). In [2], this compound returned an HC50 of more than 1020 µg/mL.
With `CC(=O)O[C@H]1CC[C@]2(C)[C@H]3CC=C4[C@@H]5CC(C)(C)CC[C@]5(C(=O)NCCCCCCCCN)CC[C@@]4(C)[C@]3(C)CC[C@H]2C1(C)C`, the selectivity ratio in series [5] was determined as 7.53. For the same compound, the MIC is 32 µg/mL (≈ 51.2 µM) in series [6]; 4 µg/mL (≈ 6.4 µM) in series [7]; 8 µg/mL (≈ 12.8 µM) in series [8]; more than 64 µg/mL in series [9]; 16 µg/mL (≈ 25.6 µM) in series [1]; 8 µg/mL (≈ 12.8 µM) in series [10]. The values for the MIC in series [11], in series [12] and in series [13] were 8 µg/mL (≈ 12.8 µM), more than 64 µg/mL and 64 µg/mL (≈ 102 µM), respectively. The HC50 in series [2] was 40.2 µg/mL.
With `CC1(C)CC[C@]2(C(=O)O)CC[C@]3(C)C(=CC[C@@H]4[C@@]5(C)CC[C@H](OCC(O)CCCCNC(=N)N)C(C)(C)[C@@H]5CC[C@]43C)[C@@H]2C1` (some centres undefined), the selectivity ratio in series [5] amounted to 330. In addition, the MIC in [6] is 8 µg/mL (≈ 13 µM); in [7] it was 2 µg/mL (≈ 3.26 µM); in series [8], 8 µg/mL (≈ 13 µM); in series [9] it was more than 64 µg/mL; in series [1] it was 4 µg/mL (≈ 6.52 µM); in series [10], 8 µg/mL (≈ 13 µM). In addition, the values for the MIC in series [11], in series [12] and in series [13] were 2 µg/mL (≈ 3.26 µM), more than 64 µg/mL and 4 µg/mL (≈ 6.52 µM), respectively. Besides, the HC50 in series [2] turned out to be 660 µg/mL.
With `CC(=O)O[C@H]1CC[C@]2(C)[C@H]3CC=C4[C@@H]5CC(C)(C)CC[C@]5(C(=O)NCCCN)CC[C@@]4(C)[C@]3(C)CC[C@H]2C1(C)C`, the selectivity ratio in series [5] was 39.2. Moreover, the MIC in series [6] is 8 µg/mL (≈ 14.4 µM); in [7], 2 µg/mL (≈ 3.6 µM); in series [8] it was 4 µg/mL (≈ 7.21 µM); in [9], more than 64 µg/mL; in series [1], 4 µg/mL (≈ 7.21 µM); in series [10] it was 4 µg/mL (≈ 7.21 µM). Besides, the MIC in series [11] is 2 µg/mL (≈ 3.6 µM); in series [12], more than 64 µg/mL; in series [13] it was 2 µg/mL (≈ 3.6 µM). In [2], this compound returned an HC50 of 78.5 µg/mL.
As for `CC(=O)O[C@H]1CC[C@]2(C)[C@H]3CC=C4[C@@H]5CC(C)(C)CC[C@]5(C(=O)NCCCCNC(=N)N)CC[C@@]4(C)[C@]3(C)CC[C@H]2C1(C)C`, in series [5], the selectivity ratio was 142. Also, the MIC was 4 µg/mL (≈ 6.55 µM) in [6]; 2 µg/mL (≈ 3.27 µM) in series [7]; 2 µg/mL (≈ 3.27 µM) in series [8]; more than 64 µg/mL in series [9]; 2 µg/mL (≈ 3.27 µM) in series [1]; 2 µg/mL (≈ 3.27 µM) in [10]. Besides, the MIC in series [11] was 2 µg/mL (≈ 3.27 µM); in [12] it was more than 64 µg/mL; in [13], 2 µg/mL (≈ 3.27 µM). This compound also gave an HC50 in [2] of 284 µg/mL.
Consider `CC1(C)CC[C@]2(C(=O)O)CC[C@]3(C)C(=CC[C@@H]4[C@@]5(C)CC[C@H](OC(=O)CCCC(=O)O)C(C)(C)[C@@H]5CC[C@]43C)[C@@H]2C1`, for which, in [5], the selectivity ratio is more than 32. The MIC in series [6] was 64 µg/mL (≈ 112 µM); in [7], 32 µg/mL (≈ 56.1 µM); in [8], 32 µg/mL (≈ 56.1 µM); in series [9] it was more than 64 µg/mL; in series [1] it was 32 µg/mL (≈ 56.1 µM); in series [10], 32 µg/mL (≈ 56.1 µM). Moreover, the MIC was 32 µg/mL (≈ 56.1 µM) in [11], more than 64 µg/mL in [12] and 32 µg/mL (≈ 56.1 µM) in [13]. This compound also yielded an HC50 in [2] of more than 1020 µg/mL.
As to `CCn1cc(C(=O)O)c(=O)c2cc(F)c(N3CCNCC3)cc21` [NORFLOXACIN], the Ratio in [14] is recorded as 32.
Take `CC1(C)CC[C@]2(C(=O)O)CC[C@]3(C)C(=CC[C@@H]4[C@@]5(C)CC[C@H](OCC(O)CCCCCCCCNC(=N)N)C(C)(C)[C@@H]5CC[C@]43C)[C@@H]2C1` (some centres undefined): the selectivity ratio in series [5] was 72.1. In addition, the MIC in series [6] is 16 µg/mL (≈ 23.9 µM); in [7] it was 4 µg/mL (≈ 5.97 µM); in [8], 8 µg/mL (≈ 11.9 µM); in [9] it was more than 64 µg/mL; in series [1] it was 8 µg/mL (≈ 11.9 µM); in series [10], 8 µg/mL (≈ 11.9 µM). Also, the MIC in [11] is 8 µg/mL (≈ 11.9 µM); in [12], more than 64 µg/mL; in series [13], 16 µg/mL (≈ 23.9 µM). Besides, the HC50 in series [2] stood at 577 µg/mL.

As usually defined, the MIC is the least concentration at which growth counts as inhibited. What is called HC50 is the concentration that lyses half of the red blood cells.
